Holding throughout (experiment): inhibition of tumour cell growth, NCI panel, 48 h
Assay [1] concerns NCI-H522 lung.
The subject of assay [2] is COLO 205 colon.
Assay [3] concerns KM12 colon.
Assay [4] deals with OVCAR-5 ovarian.
Assay [5] has as its system K-562 leukemia.
The subject of assay [6] is NCI-H460 lung.
For assay [7], the system named is U251 CNS.
Assay [8] deals with CCRF-CEM leukemia.
Assay [9] relates to HOP-92 NSCLC.
The subject of assay [10] is SF-268 CNS.

This note sets out measurements from PubChem BioAssay (NCI).

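Exposure lasted 48 hours, with cells grown in 96-well plates and compounds tested at five concentrations. GI50 marks 50% less growth. Definition used: TGI = concentration required for complete inhibition of growth.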 Bounds are passed on as bounds.

Take `C=C(CN(C)C)C(=O)c1cc(C)ccc1C`: the TGI in [1] turned out to be 1.52 µM; in assay [2], 3.53 µM; in assay [3], 38.3 µM; in assay [4], 31.2 µM; in assay [5], 8.16 µM; in [6], 44.6 µM. For the same compound, the TGI was found to be 33.5 µM in assay [7], 1.37 µM in assay [8], 8.2 µM in assay [9] and 68.3 µM in [10].

For `COc1ccc2c[n+](C)c3c4cc(OC)c(OC)cc4ccc3c2c1`, the TGI was 7.5 µM in [1]; 5.49 µM in assay [2]; 3.85 µM in [3]; 34.4 µM in assay [4]; 34.9 µM in assay [5]; 19.3 µM in assay [6]. Also, the TGI amounted to 15.3 µM in assay [7], 31.2 µM in assay [8], 35.3 µM in assay [9] and 13.2 µM in assay [10].

In the case of `O=C(N1CCC(CN=c2cc3n(-c4ccc(Cl)cc4)c4ccccc4nc-3cc2Nc2ccc(Cl)cc2)CC1)N1CC1`, the GI50 in assay [1] is 1.32 µM; in assay [3], 1.4 µM; in assay [4], 1.85 µM; in assay [5], 0.286 µM; in assay [7] it was 1.23 µM; in [8], 0.253 µM. Further, the results for the GI50 in assay [9] and in assay [10] were 13.5 µM and 1.3 µM, respectively. In addition, the TGI in [1] is 2.73 µM; in [3], 3.21 µM; in assay [4], 3.39 µM; in assay [7], 2.48 µM; in assay [8], 1.15 µM; in [9], 37 µM. This compound gave a TGI in assay [10] of 3.69 µM.

For `COc1cccc(C2C(C(=O)O)=C(CO)Oc3cc4c(cc32)OCO4)c1` (centres undefined), the TGI in [1], in [2], in assay [5], in assay [6], in assay [7] and in [8] was above 100 µM throughout. Further, the TGI in assay [9] and in assay [10] was above 100 µM in each case.

On to `CC(=O)[O-].CC(=O)[O-].O=C(N/N=C/c1cc(Cl)cc(Cl)c1[OH2+])c1ccncc1.[Zn+2]`, for which the TGI in [1], in [2], in assay [3], in assay [4], in assay [5] and in [6] was above 100 µM throughout. Also, the TGI in assay [7], in [8] and in assay [10] was above 100 µM throughout.

Consider `CCN(CC)CCC(=O)c1ccccc1`, for which the TGI was above 100 µM in [3]; 40.9 µM in assay [4]; 97.8 µM in assay [6]; 47.4 µM in assay [7]; 36.9 µM in assay [8]; 28.5 µM in assay [9]. Further, the TGI in assay [10] is 40.5 µM.

Take `CCOC(=O)C1(C(=O)OCC)CSC1`: the TGI in assay [1] is above 100 µM; in [2] it was above 100 µM; in assay [3] it was above 100 µM; in assay [5], above 100 µM; in assay [6], 1.74 µM; in assay [7], above 100 µM. For the same compound, the TGI in assay [8], in [9] and in assay [10] was above 100 µM each time.

`CCSc1nc(N2CCCCC2)c2cn[nH]c2n1`: the GI50 in assay [1] was 30.7 µM; in assay [2] it was 21.3 µM; in [3] it was 29 µM; in assay [4] it was 88.7 µM; in assay [5], 38 µM; in assay [6] it was 20.4 µM. Moreover, the GI50 in [7] was 88.3 µM; in assay [8] it was 34.7 µM; in assay [9] it was 18.1 µM; in assay [10] it was 23.6 µM. In addition, the TGI in assay [1] is above 100 µM; in [2] it was 56.8 µM; in assay [3] it was above 100 µM; in assay [4], above 100 µM; in assay [5], above 100 µM; in assay [6], 76.5 µM. The TGI in assay [7] is above 100 µM; in [8], above 100 µM; in assay [9] it was above 100 µM; in assay [10], 65.8 µM.

Regarding `c1ccc(SC(Sc2ccccc2)c2ccc3c(c2)OCO3)cc1`, the TGI in assay [1], in assay [3], in assay [4], in assay [5], in [6] and in assay [7] was above 100 µM throughout. The TGI in assay [8], in [9] and in assay [10] was above 100 µM in each case.

Regarding `CCOc1ccc(N=Nc2ccc3oc(=O)c(/C(C)=N\NC(=O)CC(=O)Nc4ccc(Cl)cc4)cc3c2)cc1`, the TGI was 50.1 µM in [1]; above 100 µM in [2]; 60.7 µM in [3]; above 100 µM in assay [4]; 70.6 µM in [5]; 34 µM in assay [7]. The values for the TGI in assay [8], in [9] and in [10] were 11.4 µM, 54.9 µM and 41.5 µM, respectively.

In the case of `COC(=O)C1=COC2OC3/C(=C\c4ccc(O)c(OC)c4)C(=O)OC34C=CC1C24` (centres undefined), the TGI in assay [1] was 28.8 µM; in assay [2], 43.8 µM; in [3] it was 26.8 µM; in assay [4] it was 32.6 µM; in [5] it was 37.6 µM; in assay [6] it was 31.7 µM. Further, the TGI in assay [7] was determined as 28.5 µM; in [8] it was 49.2 µM; in assay [9], 44.6 µM; in assay [10], 35.3 µM.

On to `CC(=O)[O-].[Ni].c1ccc(/C(=N\Nc2ccccn2)c2ccccn2)cc1`, for which the TGI came out at 20.9 µM in assay [1]; 23.1 µM in assay [3]; 47.3 µM in assay [4]; 28.1 µM in [5]; 28 µM in [6]; 22.7 µM in [7]. The TGI in assay [8] was determined as 44.3 µM; in assay [9] it was 22.3 µM; in assay [10], 30.1 µM. The GI50 in assay [2] was 0.0121 µM; in [8], 0.0976 µM.

As to `O=C(O)c1cncc(C(=O)O)c1`, the TGI in assay [1], in assay [2], in [3], in [4], in assay [5] and in assay [6] was above 100 µM in each case. Besides, the TGI in assay [7], in assay [8] and in [10] was above 100 µM throughout.

With `COc1ccc2c(c1)O[C@H]1c3ccc(O)cc3OC[C@@H]21`, the TGI in assay [1] was 79.4 µM; in assay [2], 57 µM; in assay [4], above 100 µM; in assay [5], above 100 µM; in assay [6], above 100 µM; in [7], above 100 µM. Moreover, the results for the TGI in assay [8] and in [10] were 65.8 µM and above 100 µM, respectively.

In the case of `O=c1[nH]cc(N(CCCl)CCCl)c(=O)[nH]1`, the TGI in assay [1] came out at 60.9 µM; in assay [2], 157 µM; in assay [3], 232 µM; in [4], 186 µM; in assay [5], 283 µM; in [6], 155 µM. In addition, the TGI in [7] amounted to 253 µM; in assay [8] it was 113 µM; in [9] it was 123 µM; in assay [10], 192 µM.
